Earlier results as cited in paper PMC9688344, “[^225Ac]Ac-SibuDAB for Targeted Alpha Therapy of Prostate Cancer: Preclinical Evaluation and Comparison with [^225Ac]Ac-PSMA-617” (Cancers, 2022).
Where two headings read alike, the source gives them in different places.

Legend:
[1] = patients; cited from earlier work
[2] = system: PSMA-positive PC-3 PIP cells; details: 4 h incubation; ref Tschan et al., Eur J Nucl Med Mol Imaging 2022; cited from earlier work
PSMA = biological target: T1, PSMA (Homo sapiens, UniProt Q04609); details: ref Deberle & Benešová et al., Theranostics 2020; cited from earlier work
T1 construct: expressed in transfected cells; host or cells: PC-3 PIP prostate cancer cells (transduced to express PSMA), provided by Prof; Dr. Martin Pomper, Johns Hopkins University

[3] = system: PC3-PIP/flu tumor-bearing mice; details: ref Benešová et al., Mol Pharm 2018, cited from earlier work
[4] = cited from earlier work

T1 sequence (Q04609 whole entry): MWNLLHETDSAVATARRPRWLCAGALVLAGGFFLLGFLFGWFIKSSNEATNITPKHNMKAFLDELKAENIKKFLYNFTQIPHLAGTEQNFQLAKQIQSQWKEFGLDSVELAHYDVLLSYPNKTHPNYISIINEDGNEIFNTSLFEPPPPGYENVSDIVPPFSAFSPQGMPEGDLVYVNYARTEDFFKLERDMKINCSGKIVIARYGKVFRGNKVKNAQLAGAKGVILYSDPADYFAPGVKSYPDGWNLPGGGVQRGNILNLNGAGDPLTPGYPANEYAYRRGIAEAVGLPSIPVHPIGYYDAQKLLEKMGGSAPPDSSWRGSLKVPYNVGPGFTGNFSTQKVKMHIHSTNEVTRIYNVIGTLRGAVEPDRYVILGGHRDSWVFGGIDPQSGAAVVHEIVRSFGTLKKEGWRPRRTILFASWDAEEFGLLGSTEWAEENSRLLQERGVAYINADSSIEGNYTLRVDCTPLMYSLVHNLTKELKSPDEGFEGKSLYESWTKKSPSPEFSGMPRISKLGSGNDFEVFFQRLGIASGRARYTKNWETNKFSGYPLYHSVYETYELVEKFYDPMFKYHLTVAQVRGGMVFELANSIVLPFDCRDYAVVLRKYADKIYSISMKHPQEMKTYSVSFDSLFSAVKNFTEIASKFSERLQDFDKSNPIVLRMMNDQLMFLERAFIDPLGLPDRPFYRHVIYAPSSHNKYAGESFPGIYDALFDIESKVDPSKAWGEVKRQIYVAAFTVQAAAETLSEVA

O=C([O-])CN1CCN(CC(=O)[O-])CCN(CC(=O)NCC2CCC(C(=O)NC(Cc3ccc4ccccc4c3)C(=O)NCCCCC(NC(=O)NC(CCC(=O)O)C(=O)O)C(=O)O)CC2)CCN(CC(=O)[O-])CC1.[177Lu+3] (stereo not drawn) [[^177Lu]Lu-PSMA-617]
salivary gland uptake [1]: 1.41 ± 0.53 Gy/GBq | Cell uptake [2]: 60 ± 5% | Internalized fraction [2]: 13 ± 2% | Kd (PSMA): 13 nM | Blood, accumulated activity ([3]; 1 h p.i.): 0.50 ± 0.06 % IA/g | Bone, accumulated activity ([3]; 1 h p.i.): 0.21 ± 0.04 % IA/g | Heart, accumulated activity ([3]; 1 h p.i.): 0.29 ± 0.03 % IA/g | Intestines, accumulated activity ([3]; 1 h p.i.): 0.24 ± 0.01 % IA/g | Kidneys, accumulated activity ([3]; 1 h p.i.): 9.8 ± 1.4 % IA/g | Liver, accumulated activity ([3]; 1 h p.i.): 0.20 ± 0.04 % IA/g | Lung, accumulated activity ([3]; 1 h p.i.): 0.57 ± 0.07 % IA/g | Muscle, accumulated activity ([3]; 1 h p.i.): 0.25 ± 0.20 % IA/g | PC-3 PIP tumor, accumulated activity ([3]; 1 h p.i.): 44 ± 12 % IA/g | PC-3 flu tumor, accumulated activity ([3]; 1 h p.i.): 0.28 ± 0.04 % IA/g | Salivary glands, accumulated activity ([3]; 1 h p.i.): 0.42 ± 0.30 % IA/g | Spleen, accumulated activity ([3]; 1 h p.i.): 0.63 ± 0.27 % IA/g | Stomach, accumulated activity ([3]; 1 h p.i.): 0.18 ± 0.02 % IA/g | Tumor-to-blood ratio ([3]; 1 h p.i.): 88 ± 13 | Tumor-to-kidney ratio ([3]; 1 h p.i.): 4.5 ± 0.7 | Tumor-to-liver ratio ([3]; 1 h p.i.): 213 ± 17 | Blood, accumulated activity ([3]; 4 h p.i.): ≤ 0.10 % IA/g | Bone, accumulated activity ([3]; 4 h p.i.): ≤ 0.10 % IA/g | Heart, accumulated activity ([3]; 4 h p.i.): ≤ 0.10 % IA/g | Intestines, accumulated activity ([3]; 4 h p.i.): ≤ 0.10 % IA/g | Kidneys, accumulated activity ([3]; 4 h p.i.): 3.7 ± 1.1 % IA/g | Liver, accumulated activity ([3]; 4 h p.i.): ≤ 0.10 % IA/g | Lung, accumulated activity ([3]; 4 h p.i.): ≤ 0.10 % IA/g | Muscle, accumulated activity ([3]; 4 h p.i.): ≤ 0.10 % IA/g | PC-3 PIP tumor, accumulated activity ([3]; 4 h p.i.): 56 ± 8 % IA/g | PC-3 flu tumor, accumulated activity ([3]; 4 h p.i.): ≤ 0.10 % IA/g | Salivary glands, accumulated activity ([3]; 4 h p.i.): ≤ 0.10 % IA/g | Spleen, accumulated activity ([3]; 4 h p.i.): 0.15 ± 0.04 % IA/g | Stomach, accumulated activity ([3]; 4 h p.i.): ≤ 0.10 % IA/g | Tumor-to-blood ratio ([3]; 4 h p.i.): 2315 ± 108 | Tumor-to-kidney ratio ([3]; 4 h p.i.): 16 ± 2 | Tumor-to-liver ratio ([3]; 4 h p.i.): 598 ± 108 | Blood, accumulated activity ([3]; 24 h p.i.): ≤ 0.10 % IA/g | Bone, accumulated activity ([3]; 24 h p.i.): ≤ 0.10 % IA/g | Heart, accumulated activity ([3]; 24 h p.i.): ≤ 0.10 % IA/g | Intestines, accumulated activity ([3]; 24 h p.i.): ≤ 0.10 % IA/g | Kidneys, accumulated activity ([3]; 24 h p.i.): 0.76 ± 0.15 % IA/g | Liver, accumulated activity ([3]; 24 h p.i.): ≤ 0.10 % IA/g | Lung, accumulated activity ([3]; 24 h p.i.): ≤ 0.10 % IA/g | Muscle, accumulated activity ([3]; 24 h p.i.): ≤ 0.10 % IA/g | PC-3 PIP tumor, accumulated activity ([3]; 24 h p.i.): 37 ± 6 % IA/g | PC-3 flu tumor, accumulated activity ([3]; 24 h p.i.): ≤ 0.10 % IA/g | Salivary glands, accumulated activity ([3]; 24 h p.i.): ≤ 0.10 % IA/g | Spleen, accumulated activity ([3]; 24 h p.i.): ≤ 0.10 % IA/g | Stomach, accumulated activity ([3]; 24 h p.i.): ≤ 0.10 % IA/g | Tumor-to-blood ratio ([3]; 24 h p.i.): 2730 ± 195 | Tumor-to-kidney ratio ([3]; 24 h p.i.): 50 ± 4 | Tumor-to-liver ratio ([3]; 24 h p.i.): 528 ± 51 | Blood, accumulated activity ([3]; 48 h p.i.): ≤ 0.10 % IA/g | Bone, accumulated activity ([3]; 48 h p.i.): ≤ 0.10 % IA/g | Heart, accumulated activity ([3]; 48 h p.i.): ≤ 0.10 % IA/g | Intestines, accumulated activity ([3]; 48 h p.i.): ≤ 0.10 % IA/g | Kidneys, accumulated activity ([3]; 48 h p.i.): 0.35 ± 0.05 % IA/g | Liver, accumulated activity ([3]; 48 h p.i.): ≤ 0.10 % IA/g | Lung, accumulated activity ([3]; 48 h p.i.): ≤ 0.10 % IA/g | Muscle, accumulated activity ([3]; 48 h p.i.): ≤ 0.10 % IA/g | PC-3 PIP tumor, accumulated activity ([3]; 48 h p.i.): 28 ± 4 % IA/g | PC-3 flu tumor, accumulated activity ([3]; 48 h p.i.): ≤ 0.10 % IA/g | Salivary glands, accumulated activity ([3]; 48 h p.i.): ≤ 0.10 % IA/g | Spleen, accumulated activity ([3]; 48 h p.i.): ≤ 0.10 % IA/g | Stomach, accumulated activity ([3]; 48 h p.i.): ≤ 0.10 % IA/g | Tumor-to-blood ratio ([3]; 48 h p.i.): 3776 ± 585 | Tumor-to-kidney ratio ([3]; 48 h p.i.): 81 ± 11 | Tumor-to-liver ratio ([3]; 48 h p.i.): 710 ± 97 | logD value [4]: −4.4 ± 0.2
